Patent publication US9642922B2, “Caspase-triggered nano-aggregation probes and methods of use” (The Board of Trustees of the Leland Stanford Junior …, priority 2013, dated 2017)
Numbered stars: 1 amine (or outer) side, 2 acyl side, 3 side chain; on linkers, the order of the positions; unused ones are H or OH. Square brackets hold non-standard residues; d marks the D form. Peptide text beside a SMILES is read from it. * marks the point of attachment. DOTA = O=C(O)CN1CCN(CC(=O)O)CCN(CC(=O)*)CCN(CC(=O)O)CC1; X1 = O=C(C1CSC(c2nc3ccc(N[*:1])cc3s2)=N1)[*:2]; X3 = c1cnc2ccc(OCCCN*)cc2c1; SEt = CCS*

What was measured:
[1] = test system: HeLa tumor xenograft; experiment: PET imaging of HeLa tumor xenograft-bearing nude mice; format: in vivo, mouse
Description: One group of animals was scanned at baseline (before treatment) and 4 days post treatment with 0.2 mg doxorubicin injected into the tumor. On the day of scanning, the animals were moved from their housing area to the PET scanner around 1 h prior to the experiment. They were constrained shortly in a tail veiner and injected intravenously, with 440±97 μCi (16±3 MBq) [^18F]C-SNAT formulation. They were anesthetized with 2% isoflurane shortly before placement in an R4 microPET scanner (Siemens Medical Solutions, USA). The anesthesia were continued with 2% isoflurane doing 5 min of acquisition. Scans using the control tracer 1-D (173±73 μCi/9±4 Mbq in 200 μL formulation) were carried out in a similar manner using two groups (one baseline and one treated) instead of the same animals at baseline and after treatment. The images were reconstructed using a standard 2D reconstruction without attenuation correction.
The reconstructed images were analyzed by making two volumes of interest (VOI), one on the tumor and one located on the left shoulder corresponding to muscle/bone mixture. The percent of injected dose per gram tissue (% ID/g) was calculated in each VOI and the ratio between tumor and muscle uptake was calculated based on this uptake (uptake in tumor/uptake in muscle region). The effect of treatment was calculated as the difference in uptake of [^18F]C-SNAT at baseline and after treatment.
Evaluation of activatable PET tracer 1 and control tracer 1-D for PET imaging of caspase-3 activity in vivo was performed in HeLa tumor xenograft-bearing nude mice. Tumors were implanted and grown for a minimum of 10 d before receiving intratumoral injection of 0.2 mg DOX (20 μL). 1 or 1-D (5-15 MBq/135-405 μCi) was injected through the tail vein for PET imaging 4 d post treatment. Static PET scans (5 min) were performed 65, 125 and 182 mins post tracer injection.

[2] = target: T1, caspase-3 (Homo sapiens, UniProt P42574); experiment: Incubation of PET tracer with recombinant caspase-3, radio-HPLC; format: biochemical; settings: same condition
T1 sequence (P42574 29-175 limits assumed): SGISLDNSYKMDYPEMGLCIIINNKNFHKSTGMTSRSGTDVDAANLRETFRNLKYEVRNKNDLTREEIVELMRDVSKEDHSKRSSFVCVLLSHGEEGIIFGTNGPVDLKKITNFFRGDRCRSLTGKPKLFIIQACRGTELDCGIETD
T1 sequence (P42574 176-277 limits assumed): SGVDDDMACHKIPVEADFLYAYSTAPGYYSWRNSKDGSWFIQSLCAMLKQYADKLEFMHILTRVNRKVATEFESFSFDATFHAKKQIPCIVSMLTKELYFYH
Description: To evaluate the activatable PET tracer 1 for caspase-3 detection, it was first incubated with recombinant caspase-3 in buffer.

[3] = Stability of PET tracers in mouse serum; format: in vitro ADME; settings: 1 h incubation, 37° C.
Description: To the mouse serum (500 μL) 100 μL (approximately 100 μCi/3.7 MBq) of radioactive sample was added and the mixture was incubated at 37° C. At each time point, 100 μL of sample was taken and after mixing with 100 μL of acetonitrile was centrifuged at 9,400×g for 5 min. The resulting supernatants were collected, and an aliquot of each supernatant (100 μL) was diluted with 100 μL of water and analyzed via the same HPLC method used for quality control (fitted with a highly sensitive positron detector for radioactivity). The percent ratio of intact compound to the total radioactivity on the HPLC chromatogram was calculated as %=[(peak area for intact compound)/(total peak area)]×100.

[4] = Water proton r1 relaxivity measurement; format: physicochemical; settings: 1 T
Description: Water proton r1 relaxivities of probe 15 and 1-ctrl (19) before and after caspase-3 incubation were then measured at 1, 1.5 and 3 T. For comparison, the isolated cyclized products 2-I and 2-II were also measured.
A series of solutions containing contrast agents with five different concentrations (0.05-0.5 mM) in Caspase buffer (pH 7.4) were treated with or without Casp-3 (50 nM) at 37° C. overnight. The solutions were placed in PCR tubes, bundled together, and MR-imaged at 1 T (Bruker Icon, Bruker BioSpin Corp.), […], 1.5 and 3 T (Signa HDx, GE Healthcare) at room temperature.
The scanning procedure began with a localizer and then consisted of a series of inversion-prepared fast spin echo scans, identical in all aspects (TR 8000 ms (6000 ms for Bruker Icon), TE minimum, field of view 6 cm, slice thickness 2 mm, matrix 128×128, NEX 1) except for the inversion time (TI) that was varied as: 4000, 2400, 1200, 800, 600, 400, 300, 200, 100, and 50 ms. For quantitative data analysis, the acquired MR images were transferred as DICOM images to an offline workstation, and signal intensities were extracted from each of the 5 samples at each of the 10 TI times by manual region of interest (ROI) placement and voxel averaging within the ROI.
Signal intensity versus TI relationships were fit to the following exponential T1 recovery model by non-linear least squares regression: SI (TI)=S0[1−2*exp(−TI/T1)+exp(−TR/T1)]. Relaxation rates (R1) were determined as 1/T1. Longitudinal relaxivities (r1, units of mM^−1s^−1) were calculated as the slope of R1 vs [Gd] after the determination of true Gd concentration of each sample by the ICP-MS measurement.

[5] = test system: HeLa cells; experiment: ICP-MS cellular uptake of Gd in HeLa cells; format: cell-based, human; settings: 250 μM, 24 h
Description: The cellular uptake of Gd was studied by inductively-coupled plasma mass spectrometry (ICP-MS) analysis of the amount of Gd in viable and apoptotic cells after incubation with probe 15 (50-250 μM) for 24 h. […] This uptake enhancement was inhibitable by Z-VAD-fmk (50 μM), confirming the caspase-3-dependent accumulation of probe 15 in apoptotic cells.

[6] = target: T1, caspase-3; experiment: HPLC assay of caspase-3-triggered cyclization of MRI probe 15; format: biochemical; design: purchased Sigma; host or cells: E. coli
Description: The progression of caspase-3-triggered intramolecular cyclization of probe 15 in solution was investigated by incubation (200 μM) with recombinant human caspase-3 (50 nM) using high-performance liquid chromatography (HPLC). […] More than 90% of probe 15 and its disulfide bond reduced intermediates could be converted after 5 h (FIG. 27B).

[7] = test system: subcutaneous HeLa tumors; experiment: In vivo MR imaging of doxorubicin-treated HeLa tumors; design: species or system mouse; settings: up to 4 h
Description: Evaluation of activatable contrast agent probe 15 for MR imaging of caspase-3 activity in vivo was performed in nude mice bearing subcutaneous HeLa tumors. Tumors were implanted and grown for 10-15 days before receiving intratumoral injections of two doses of 0.2 mg doxorubicin separated by 2 days. Probe 15 or 1-ctrl (19) (0.1 mmol kg^−1) was injected intravenously the day before treatment (baseline) and four days post-treatment (treated). Spin-echo T1-weighted multislice MR images at 1 T were recorded before (pre-contrast) and every 4 min after contrast agent administration (post-contrast), and scanning was carried out for 4 h post-contrast for each mouse. Much brighter MR signals (T1 contrast) were observed 40 and 120 min after injection with probe 15 in treated tumors as compared to that in baseline tumors (FIG. 29A), or in treated tumors with 1-ctrl (19) (FIG. 29B).
In vivo MR imaging was performed on an Aspect M2 1T permanent magnet (Aspect Imaging, Shoham, Israel) using a 40 mm Transmit/Receive mouse body coil. During imaging, the animals were anaesthetized with isofluorane and their respiration and body temperature were constantly monitored. Intravenous contrast injection at 0.1 mmol/kg concentration was administered in a 100 μL volume for every imaging session. Multi-slice (312 μm in-plane, 12 slices with 1 mm thickness) T1-weighted spin echo images (TE/TR=8.9/250 ms, matrix 128×128, FOV=40 mm, NEX=6) were acquired, one before contrast injection and then every 4 min up to 4 h after contrast injection. A 1 mM Dotarem reference tube was inserted in the field of view to enable inter-session variability correction during post-processing. Each animal underwent two imaging session; one before DOX treatment (baseline), and one after DOX treatment (treated).
Acquired MR data were transferred as DICOM images to an offline workstation and ImageJ (NIH) was used for post processing and quantitative image analysis. This consisted of manual segmentation of tumor ROI for each slice, slice-wise normalization of mean tumor signal intensity with the 1 mM Dotarem reference standard to account for inter-session variability, followed by combining these normalized, slice-wise values to generate mean volumetric tumor signal intensities (SI) for each time point.
Signal enhancement was calculated at each time point as the difference between the tumor SI at that time point and the tumor SI in the pre-contrast (t=0) dataset. SE(t)=SI(t)−SI(t=0); for each mouse, for every session
This metric was used to quantify the difference in SE between the baseline (before DOX treatment) session and the treated session for each mouse, as a means to tease out the difference between the two contrast agents, probe 1 and 1-cntl (19) over the time course of the imaging session. % D(t)=[SE(t,treated)−SE(t,baseline)]/SE(t,baseline); for each mouse.

[8] = test system: HeLa cell pellets; experiment: MRI T1 of HeLa cell pellets at 1 T; format: cell-based, human; settings: 250 μM, 24 h
From the text: Thus, higher caspase-3 activity in apoptotic cells can trap probe 15 inside cells, resulting in higher MRI contrast for cell apoptosis imaging.

SMILES: CSCC(NC(=O)C(CC(=O)O)NC(=O)C(NC(=O)C(CCC(=O)O)NC(=O)C(CC(=O)O)NC(C)=O)C(C)C)C(=O)NC(Cc1cn(CCOCCOCCOCC[18F])nn1)C(=O)Nc1ccc2nc(C3=NC(C(=O)NCCCOc4ccc5ncccc5c4)CS3)sc2c1 (stereo not drawn) [1-D]
- uptake difference between before and after treatment ([1]; control tracer): less than 0.2 % ID/g
- change of T/M ratio ([1]; mouse, in vivo): did not show significant increases
- uptake in treated and non-treated tumors compared with 1 ([1]; mouse, in vivo): much lower than that of 1
- cleavage by caspase-3 [2]: could not be cleaved by caspase-3
- intact tracer in mouse serum [3]: 90%

SMILES: CCSSCC(NC(=O)C(CC(=O)O)NC(=O)C(NC(=O)C(CCC(=O)O)NC(=O)C(CC(=O)O)NC(C)=O)C(C)C)C(=O)NC(CCCCNC(=O)CN1CCN(CC(=O)[O-])CCN(CC(=O)[O-])CCN(CC(=O)[O-])CC1)C(=O)Nc1ccc2nc(C3=NC(C(=O)NCCCOc4ccc5ncccc5c4)CS3)sc2c1.[Gd+3] (stereo not drawn) [1-ctrl (19)] (Ac-DEVDC(SEt)K(DOTA)[X1]-X3; configuration not given here)
- reduction of relaxivity after incubation with caspase-3 [4]: 14%
- uptake of Gd in STS-treated cells compared with probe 15 [5]: much lower uptake of Gd
- products observed after incubation with caspase-3 [6]: only the DEVD peptide cleaved and disulfide reduced product was observed
- difference in SI enhancement between treated and baseline tumors [7]: no significant difference in SI enhancement

SMILES: CNC[C@H](O)[C@@H](O)[C@H](O)[C@H](O)CO.O=C([O-])CN1CCN(CC(=O)[O-])CCN(CC(=O)O)CCN(CC(=O)[O-])CC1.[Gd+3] [Dotarem, reference compound]
- r1 relaxivity without caspase-3 activation [4]: 4.8 mM⁻¹ s⁻¹
- uptake of Gd in STS-treated cells compared with probe 15 [5]: much lower uptake of Gd
- difference in T1 between STS-treated and non-treated cells [8]: no significant reduction in T1
